Starred links: 1 amine or outer side, 2 acyl side, 3 side chain; linkers in the order of their positions; H or OH if unused. Non-standard residues stand in square brackets, D forms with d. Residues, ends and D or L forms follow the SMILES beside them. ξ: configuration not given here. X2 = CN(C(C(=O)[*:2])C(O)c1ccccc1)[*:1]; X4 = CC(C(=O)O)C(C(=O)[*:2])N(C)[*:1]; ξNMeVal(3-OH) = CNC(C(=O)O)C(C)(C)O; X3 = C=C(C)C(C(=O)[*:2])N(C)[*:1]; X5 = CC(CO)C(C(=O)[*:2])N(C)[*:1]; X6 = CC(C)=C(C(=O)[*:2])N(C)[*:1]; NMeF = CN[CH](Cc1ccccc1)C(=O)O; X1 = CCC(C)C(O[*:1])C(=O)[*:2]; NMeV = CN[CH](C(=O)O)C(C)C; Hiv = CC(C)[CH](O)C(=O)O
Key:
[1] = tested on: Cryptococcus neoformans TIMM 0354; test: MIC by agar dilution method, casitone agar; type: cell-based; conditions: Table 5
Method: (§1) The minimum inhibitory concentration (MIC) of each antibiotic against various fungi was determined by the agar dilution method using casitone agar medium (2.0% glucose, 0.9% bacto-casitone, 1.0% yeast extract, 0.1% KH2 PO4, 0.1% Na2 HPO4, 1.0% sodium citrate, 2.0% agar: concentrations are all by w/v).
(§2) Each minimum growth inhibitory concentration was determined after culturing at 27° C. for 4 days.

[2] = tested on: Candida glabrata TIMM 1062; test: MIC by agar dilution method, casitone agar; type: cell-based; conditions: Table 5
Method: as §1, §2

[3] = 50% lethal dose (LD50) in mice; type: in vivo
Description: All of the antibiotics R106 show low toxicity. The results of 50% lethal dose (LD50) obtained when each of representative compounds of the present invention was given to mice intravenously, intraperitoneally and orally are shown in Table 7.

[4] = tested on: Candida albicans TIMM 0171; test: MIC by agar dilution method, casitone agar; type: cell-based; conditions: Table 5
Method: as §1, with “The antibiotics R106 of the present invention are active against various fungi including pathogenic fungi. The” for “The”

[5] = tested on: Candida albicans TIMM 1768; test: MIC by agar dilution method, casitone agar; type: cell-based; conditions: Table 5
Method: as §1, with “The antibiotics R106 of the present invention are active against various fungi including pathogenic fungi. The” for “The”

Candida kefyr TIMM 0301 = test: MIC by agar dilution method, casitone agar; type: cell-based; conditions: Table 5
Method: as §1, with “The antibiotics R106 of the present invention are active against various fungi including pathogenic fungi. The” for “The”

[6] = tested on: Candida albicans TIMM 0136; test: MIC by agar dilution method, casitone agar; type: cell-based; conditions: Table 5
Method: as §1, with “The antibiotics R106 of the present invention are active against various fungi including pathogenic fungi. The” for “The”

Row | minimum inhibitory concentration (MIC) [1] | minimum inhibitory concentration (MIC) [2] | minimum inhibitory concentration (MIC) [4] | minimum inhibitory concentration (MIC) [5] | minimum inhibitory concentration (MIC) (Candida kefyr TIMM 0301) | minimum inhibitory concentration (MIC) [6] | SMILES | LD50 ([3]; i.p.) [mg/kg] | LD50 ([3]; i.v.) [mg/kg] | LD50 ([3]; p.o.) [mg/kg]
1 | > 25 | > 25 | 3.12 | 25 | 25 | 6.25 | CCC(C)C1NC(=O)C2CCCN2C(=O)C(Cc2ccccc2)N(C)C(=O)C(Cc2ccccc2)NC(=O)C(C(C)C)N(C)C(=O)C(C(C)CC)OC(=O)C(=C(C)C)N(C)C(=O)C(CC(C)C)NC(=O)C(C(C)C)N(C)C1=O (stereo not drawn) [Compound 18] (cyclo([X6][X1][NMeV]F[NMeF]PI[NMeV]L); configuration not given here) | – | – | –
2 | > 25 | > 25 | 1.56 | 25 | 3.12 | 3.12 | CCC(C)C1NC(=O)C2CCCN2C(=O)C(Cc2ccccc2)N(C)C(=O)C(Cc2ccccc2)NC(=O)C(C(C)C)N(C)C(=O)C(C(C)CC)OC(=O)C(C(C)C)N(C)C(=O)C(CC(C)C)NC(=O)C(C(C)C)NC1=O (stereo not drawn) [Compound 16] (cyclo([X1][NMeV]F[NMeF]PIVL[NMeV]); configuration not given here) | – | – | –
3 | > 25 | > 25 | 25 | > 25 | > 25 | 12.5 | CCC(C)C1NC(=O)C2CCCN2C(=O)C(Cc2ccccc2)N(C)C(=O)C(Cc2ccccc2)NC(=O)C(C(C)C)N(C)C(=O)C(C(C)CC)OC(=O)C(Cc2ccccc2)N(C)C(=O)C(CC(C)C)NC(=O)C(C(C)C)N(C)C1=O (stereo not drawn) [Compound 17] (cyclo([X1][NMeV]F[NMeF]PI[NMeV]L[NMeF]); configuration not given here) | – | – | –
4 | > 25 | 12.5 | 1.56 | 12.5 | 6.25 | 1.56 | C=C(C)C1C(=O)OC(C(C)CC)C(=O)N(C)C(C(C)C)C(=O)NC(Cc2ccccc2)C(=O)N(C)C(Cc2ccccc2)C(=O)N2CCCC2C(=O)NC(C(C)CC)C(=O)N(C)C(C(C)C)C(=O)NC(CC(C)C)C(=O)N1C (stereo not drawn) [Compound 14] (cyclo([X3][X1][NMeV]F[NMeF]PI[NMeV]L); configuration not given here) | – | – | –
5 | 25 | > 25 | 25 | 25 | > 25 | 12.5 | CCC(C)C1NC(=O)C2CCCN2C(=O)C(Cc2ccccc2)N(C)C(=O)C(Cc2ccccc2)NC(=O)C(C(C)C)N(C)C(=O)C(C(C)CC)OC(=O)C(C(O)c2ccccc2)N(C)C(=O)C(CC(C)C)NC(=O)C(C(C)C)N(C)C1=O (stereo not drawn) [Compound 15] (cyclo([X2][X1][NMeV]F[NMeF]PI[NMeV]L); configuration not given here) | – | – | –
6 | > 25 | > 25 | 12.5 | 12.5 | 25 | 6.25 | CCC(C)C1NC(=O)C2CCCN2C(=O)C(Cc2ccccc2)NC(=O)C(Cc2ccccc2)NC(=O)C(C(C)C)N(C)C(=O)C(C(C)CC)OC(=O)C(C(C)C)N(C)C(=O)C(CC(C)C)NC(=O)C(C(C)C)N(C)C1=O (stereo not drawn) [Compound 13] (cyclo([X1][NMeV]FFPI[NMeV]L[NMeV]); configuration not given here) | – | – | –

More lines, now with the values behind:

Row | SMILES | minimum inhibitory concentration (MIC) [1] | minimum inhibitory concentration (MIC) [2] | minimum inhibitory concentration (MIC) [4] | minimum inhibitory concentration (MIC) [5] | minimum inhibitory concentration (MIC) (Candida kefyr TIMM 0301) | minimum inhibitory concentration (MIC) [6] | LD50 ([3]; i.p.) [mg/kg] | LD50 ([3]; i.v.) [mg/kg] | LD50 ([3]; p.o.) [mg/kg]
7 | CCC(C)C1NC(=O)C2CCCN2C(=O)C(C(O)c2ccccc2)N(C)C(=O)C(Cc2ccccc2)NC(=O)C(C(C)C)N(C)C(=O)C(C(C)CC)OC(=O)C(C(C)(C)O)N(C)C(=O)C(CC(C)C)NC(=O)C(C(C)C)N(C)C1=O (stereo not drawn) [Compound 5] (cyclo([X2]PI[NMeV]L[ξNMeVal(3-OH)][X1][NMeV]F); configuration not given here) | 3.12 | 0.20 | ≤ 0.05 | ≤ 0.05 | 0.20 | ≤ 0.05 | > 200 | > 100 | > 200
8 | CCC(C)C1OC(=O)C(C(C)(C)O)N(C)C(=O)C(CC(C)C)NC(=O)C(C(C)C)N(C)C(=O)C(CC(C)C)NC(=O)C2CCCN2C(=O)C(Cc2ccccc2)N(C)C(=O)C(Cc2ccccc2)NC(=O)C(C(C)C)N(C)C1=O (stereo not drawn) [Compound 9] (cyclo([ξNMeVal(3-OH)][X1][NMeV]F[NMeF]PL[NMeV]L); configuration not given here) | 25 | 0.39 | ≤ 0.05 | 0.20 | 0.20 | ≤ 0.05 | > 200 | > 100 | > 200
9 | CCC(C)C1OC(=O)C(C(C)C)N(C)C(=O)C(CC(C)C)NC(=O)C(C(C)C)N(C)C(=O)C(C(C)C)NC(=O)C2CCCN2C(=O)C(Cc2ccccc2)N(C)C(=O)C(Cc2ccccc2)NC(=O)C(C(C)C)N(C)C1=O (stereo not drawn) [Compound 12] (cyclo([X1][NMeV]F[NMeF]PV[NMeV]L[NMeV]); configuration not given here) | > 25 | > 25 | 6.25 | 25 | 12.5 | 6.25 | – | – | –
10 | CCC(C)C1OC(=O)C(C(C)(C)O)N(C)C(=O)C(CC(C)C)NC(=O)C(C(C)C)N(C)C(=O)C(C(C)C)NC(=O)C2CCCN2C(=O)C(Cc2ccccc2)N(C)C(=O)C(Cc2ccccc2)NC(=O)C(C(C)C)N(C)C1=O (stereo not drawn) [Compound 3] (cyclo([ξNMeVal(3-OH)][X1][NMeV]F[NMeF]PV[NMeV]L); configuration not given here) | 1.56 | 0.20 | 0.10 | 1.56 | 0.20 | 0.10 | – | – | –
11 | CCC(C)C1NC(=O)C2CCCN2C(=O)C(Cc2ccccc2)N(C)C(=O)C(Cc2ccccc2)NC(=O)C(C(C)C)N(C)C(=O)C(C(C)CC)OC(=O)C(C(C)CO)N(C)C(=O)C(CC(C)C)NC(=O)C(C(C)C)N(C)C1=O (stereo not drawn) [Compound 4] (cyclo([X5][X1][NMeV]F[NMeF]PI[NMeV]L); configuration not given here) | 25 | 1.56 | 0.10 | 0.39 | 0.78 | 0.20 | – | – | –
12 | CCC(C)C1NC(=O)C2CCCN2C(=O)C(Cc2ccccc2)N(C)C(=O)C(Cc2ccccc2)NC(=O)C(C(C)C)N(C)C(=O)C(C(C)CC)OC(=O)C(C(C)C)NC(=O)C(CC(C)C)NC(=O)C(C(C)C)N(C)C1=O (stereo not drawn) [Compound 8] (cyclo([X1][NMeV]F[NMeF]PI[NMeV]LV); configuration not given here) | > 25 | > 25 | 1.56 | 12.5 | > 25 | 1.56 | – | – | –
13 | CCC(C)C1NC(=O)C2CCCN2C(=O)C(Cc2ccccc2)N(C)C(=O)C(Cc2ccccc2)NC(=O)C(C(C)C)N(C)C(=O)C(C(C)CC)OC(=O)C(C(C)C(=O)O)N(C)C(=O)C(CC(C)C)NC(=O)C(C(C)C)N(C)C1=O (stereo not drawn) [Compound 10] (cyclo([X4][X1][NMeV]F[NMeF]PI[NMeV]L); configuration not given here) | 25 | 3.12 | 0.78 | 12.5 | 3.12 | 0.78 | – | – | –
14 | CCC(C)C1NC(=O)C2CCCN2C(=O)C(Cc2ccccc2)N(C)C(=O)C(Cc2ccccc2)NC(=O)C(C(C)C)N(C)C(=O)C(C(C)C)OC(=O)C(C(C)C)N(C)C(=O)C(CC(C)C)NC(=O)C(C(C)C)N(C)C1=O (stereo not drawn) [Compound 11] (cyclo(F[NMeF]PI[NMeV]L[NMeV][Hiv][NMeV]); configuration not given here) | > 25 | > 25 | 1.56 | 1.56 | 6.25 | 1.56 | – | – | –
15 | CCC(C)C1NC(=O)C2CCCN2C(=O)C(Cc2ccccc2)N(C)C(=O)C(Cc2ccccc2)NC(=O)C(C(C)C)N(C)C(=O)C(C(C)CC)OC(=O)C(C(C)(C)O)N(C)C(=O)C(CC(C)C)NC(=O)C(C(C)C)NC1=O (stereo not drawn) [Compound 6] (cyclo([ξNMeVal(3-OH)][X1][NMeV]F[NMeF]PIVL); configuration not given here) | 25 | 1.56 | 0.39 | 0.39 | 0.39 | 0.78 | – | – | –

— patent US5057493A, “Novel antibiotics R106” (priority 1988, dated 1991)
